Entries after “also recorded” stand apart in the source; their conditions may differ.
Test: Qualitative solubility in water and organic solvents
Type: physicochemical
Details: for solubility in methanol: compared to octadecadiynyl analogues 12 and 3; for solubility in organic solvents: organic solvents like CHCl3, CH2Cl2 (and DMF)
Text: Thus self-aggregation behavior of 3 has not been investigated. To increase the polar character and to improve the water-solubility of such a bis-biotinated derivative, the [5:1]-hexakisadduct 13 with five ethyl malonate addends instead of the five octadecadiynyl malonates was synthesized (FIG. 2). To overcome the general problem of separating the desired hexakisadducts from other adducts formed simultaneously upon the exhaustive cyclopropanation step the sequence of addition steps was reversed in this case. For this purpose the cherry-red C2v-symmetrical [5:0]-pentakisadduct 14^[14] was prepared and used as starting material. The subsequent cyclopropanation reaction with the Boc-protected spacer malonate 8 to complete the C2v-symmetrical octahedral addition pattern afforded the bright-yellow N-Boc-protected [5:1]-hexakisadduct 15 in 63% yield after FC and HPLC purification. After cleavage of the Boc-protecting groups with TFA/CH2Cl2 the bis-amino amphifullerene 16 was obtained in quantitative yield. […]
The characterization of the protected dipeptide hexakisadduct precursors 45 and 46 as well as the free dipeptide hexakisadducts 47 and 48 succeeded by IR-, UV-, ^1H and ^13C NMR and by FAB mass spectroscopy.
The synthesis of a series of mixed amphiphilic hexakisadducts of C60 with an octahedral addition pattern is now described. The new [5:1]-hexakisadduct 3 involving five non-polar long chain malonate addends and one polar addend with two biotin termini is insoluble in water. As a consequence it cannot be used for the investigation of superstructures in aqueous solution. However, it represents an attractive building block for a potential co-surfactant aided assembly to mixed micelles or liposomes. The spacer carrying the biotin termini was designed in a way that it can protrude through a layer of assembled lipid molecules such as DPPC. This in principle makes it available for targeting of micelles and liposomes via avidin mediated binding of label molecules. This is believed to be the first report of the synthesis of amphiphilic [3:3]-hexakisadducts of C60. The key for the very facile access to these aesthetically pleasing molecules is the easy synthesis of the e,e,e-trisadduct 18, which can be prepared in one step from the highly regioselective addition of cyclo-[3]-octylmalonate 17. The remaining three octahedral sites are available for the attachment of three ionic or neutral polar addends. As termini carboxy, amino and peptide moieties were used. This allows for the introduction of a tunable number of positive or negative charges within the polar groups by pH-variation. In a few cases preliminary investigations on the self-assembly using cryo-TEM and PGSE-NMR have been carried out. It has been shown that the solubility and self-assembly properties depend on the number of ionic charges and therefore on the pH value. These are very favourable opportunities for the controlled encapsulation and release of non-polar guest molecules making such amphiphilic fullerenes interesting candidates for drug delivery systems. Extensive investigations on the aggregation and inclusion properties of amphiphilic [3:3]-hexakisadducts of C60 are currently under way.

Row | solubility in methanol | solubility in organic solvents | Substance | self-assembly in water | solubility in water
1 | enhanced solubility | appreciable solubility | 1,2-{Bis-(14-[3-{2-(2-[Aminopropoxy]-ethoxy)-ethoxy}-propyl]carbamoyl-tetradecyloxycarbonyl)-methano}-18,36:22,23:27,45:31,32:55,60-pentakis-{ethyloxycarbonyl)-methano}-1,2:18,36:22,23:27,45:31,32:55,60-dihydro[60]fullerene [compound 16] |  | 
2 | enhanced solubility | appreciable solubility | 1,2-{Bis-(14-[3-{2-(2-[N-Biotinyl-aminopropoxy]ethoxy)-ethoxy}-propyl]-carbamoyl-tetradecyloxycarbonyl)-methano}-18,36:22,23:27,45:31,32:55,60-pentakis-{ethyloxycarbonyl)-methano}1,2:18,36:22,23:27,45:31,32:55,60-dihydro-[60]fullerene [compound 13] | inappropriate to form self-assemblies in water | water-insoluble
3 |  | Acceptable solubility | 1,2-{Bis-(14-[3-{2-(2-[N-Biotinyl-aminopropoxy]-ethoxy)-ethoxy}-propyl]-carbamoyltetradecyloxycarbonyl)-methano}-18,36:22,23:27,45:31,32:55,60-pentakis-{di(10,12-octadecadiynyloxycarbonyl)-methano}-1,2:18,36:22,23:27,45:31,32:55,60-dihydro[60]fullerene [compound 3] | inappropriate to form self-assemblies in water | only soluble in the presence of a co-solvent like methanol; also recorded: water-insoluble

— US7507764B2 (Tego BioSciences Corporation, priority 2003, dated 2009)
